Test results from ChEMBL document CHEMBL4387741, “Optimization of novel reversible Bruton's tyrosine kinase inhibitors identified using Tethering-fragment-based screens” (Bioorg Med Chem, 2019).

Experiments:
[1] = tested on: Tyrosine-protein kinase ABL1 (Homo sapiens), P00519 [H396P]; experiment: Inhibition of human non-phosphorylated ABL1 H396P mutant (S229 to K512 residues) expressed in mammalian expression system at 1 uM by Kinomescan method relative to control
[2] = molecular target: Death-associated protein kinase 3 (Homo sapiens) (UniProt O43293); experiment: Inhibition of wild-type human partial length DAPK3 (M1 to A277 residues) expressed in bacterial expression system at 1 uM by Kinomescan method relative to control
[3] = molecular target: Ephrin type-A receptor 2 (Homo sapiens) (UniProt P29317); experiment: Inhibition of wild-type human partial length EPHA2 (T593 to V891 residues) expressed in bacterial expression system at 1 uM by Kinomescan method relative to control
[4] = molecular target: Focal adhesion kinase 1 (Homo sapiens) (UniProt Q05397); experiment: Inhibition of wild-type human partial length FAK (D402 to R696 residues) expressed in bacterial expression system at 1 uM by Kinomescan method relative to control
[5] = molecular target: Vascular endothelial growth factor receptor 3 (Homo sapiens) (UniProt P35916); experiment: Inhibition of wild-type human partial length FLT4 (E821 to E1196 residues) expressed in bacterial expression system at 1 uM by Kinomescan method relative to control
[6] = molecular target: Interleukin-1 receptor-associated kinase 3 (Homo sapiens) (UniProt Q9Y616); experiment: Inhibition of wild-type human partial length IRAK3 (V147 to E596 residues) expressed in bacterial expression system at 1 uM by Kinomescan method relative to control
[7] = molecular target: Tyrosine-protein kinase JAK1 (Homo sapiens) (UniProt P23458); experiment: Inhibition of wild-type human partial length JAK1 JH2 pseudokinase domain (R537 to D855 residues) expressed in mammalian expression system at 1 uM by Kinomescan method relative to control
[8] = molecular target: LIM domain kinase 1 (Homo sapiens) (UniProt P53667); experiment: Inhibition of wild-type human full length LIMK1 (M1 to D647 residues) expressed in bacterial expression system at 1 uM by Kinomescan method relative to control
[9] = molecular target: Serine/threonine-protein kinase 38 (Homo sapiens) (UniProt Q15208); experiment: Inhibition of wild-type human partial length NDR1 (N33 to E449 residues) expressed in mammalian expression system at 1 uM by Kinomescan method relative to control
[10] = molecular target: Serine/threonine-protein kinase Nek9 (Homo sapiens) (UniProt Q8TD19); experiment: Inhibition of wild-type human partial length NEK9 (P32 to R328 residues) expressed in bacterial expression system at 1 uM by Kinomescan method relative to control
[11] = molecular target: Cyclin-dependent kinase 2 homolog (Plasmodium falciparum (isolate 3D7)) (UniProt P61075); experiment: Inhibition of wild-type Plasmodium falciparum full length PK5 (M1 to N288 residues) expressed in mammalian expression system at 1 uM by Kinomescan method relative to control
[12] = tested on: Phosphatidylinositol 4,5-bisphosphate 3-kinase catalytic subunit alpha isoform (Homo sapiens), P42336 [E542K]; experiment: Inhibition of human partial length PIK3CA E542K mutant (R108 to N1068 residues) expressed in mammalian expression system at 1 uM by Kinomescan method relative to control
[13] = molecular target: SRSF protein kinase 2 (Homo sapiens) (UniProt P78362); experiment: Inhibition of wild-type human full length SRPK2 (M1 to S686 residues) expressed in bacterial expression system at 1 uM by Kinomescan method relative to control
[14] = molecular target: Serine/threonine-protein kinase 35 (Homo sapiens) (UniProt Q8TDR2); experiment: Inhibition of wild-type human partial length STK35 (G182 to A534 residues) expressed in bacterial expression system at 1 uM by Kinomescan method relative to control
[15] = molecular target: TRAF2 and NCK-interacting protein kinase (Homo sapiens) (UniProt Q9UKE5); experiment: Inhibition of wild-type human partial length TNIK (D4 to K311 residues) expressed in bacterial expression system at 1 uM by Kinomescan method relative to control
[16] = molecular target: Tyrosine-protein kinase ZAP-70 (Homo sapiens) (UniProt P43403); experiment: Inhibition of wild-type human partial length ZAP70 (D20 to G299 residues) expressed in mammalian expression system at 1 uM by Kinomescan method relative to control
[17] = tested on: ALK tyrosine kinase receptor (Homo sapiens), Q9UM73 [C1156Y]; experiment: Inhibition of wild-type human partial length ALK C1156Y mutant (I1088 to E1409 residues) expressed in mammalian expression system at 10 uM by Kinomescan method relative to control
[18] = molecular target: 5'-AMP-activated protein kinase catalytic subunit alpha-2 (Homo sapiens) (UniProt P54646); experiment: Inhibition of wild-type human partial length AMPK alpha2 (M1 to E306 residues) expressed in bacterial expression system at 10 uM by Kinomescan method relative to control
[19] = molecular target: Aurora kinase A (Homo sapiens) (UniProt O14965); experiment: Inhibition of wild-type human partial length AURKA (E122 to K401 residues) expressed in mammalian expression system at 10 uM by Kinomescan method relative to control
[20] = molecular target: Protein-tyrosine kinase 6 (Homo sapiens) (UniProt Q13882); experiment: Inhibition of wild-type human partial length BRK (L166 to T451 residues) expressed in bacterial expression system at 10 uM by Kinomescan method relative to control
[21] = molecular target: Cyclin-dependent kinase-like 3 (Homo sapiens) (UniProt Q8IVW4); experiment: Inhibition of wild-type human partial length CDKL3 (M1 to D327 residues) expressed in bacterial expression system at 10 uM by Kinomescan method relative to control
[22] = molecular target: Receptor-type tyrosine-protein kinase FLT3 (Homo sapiens) (UniProt P36888); experiment: Inhibition of wild-type human partial length FLT3 (V592 to Y969 residues) expressed in bacterial expression system at 10 uM by Kinomescan method relative to control
[23] = tested on: Receptor-type tyrosine-protein kinase FLT3 (Homo sapiens), P36888 [D835Y]; experiment: Inhibition of human partial length FLT3 D835Y mutant (Q580 to Y969 residues) expressed in bacterial expression system at 10 uM by Kinomescan method relative to control
[24] = molecular target: Glycogen synthase kinase-3 beta (Homo sapiens) (UniProt P49841); experiment: Inhibition of wild-type human full length GSK3B (M1 to T433 residues) expressed in mammalian expression system at 10 uM by Kinomescan method relative to control
[25] = molecular target: Tyrosine-protein kinase JAK3 (Homo sapiens) (UniProt P52333); experiment: Inhibition of wild-type human partial length JAK3 JH1 catalytic domain (I781 to S1124 residues) expressed in mammalian expression system at 10 uM by Kinomescan method relative to control
[26] = molecular target: Serine/threonine-protein kinase 38 (Homo sapiens) (UniProt Q15208); experiment: Inhibition of wild-type human partial length NDR1 (N33 to E449 residues) expressed in mammalian expression system at 10 uM by Kinomescan method relative to control
[27] = molecular target: Tyrosine-protein kinase receptor TYRO3 (Homo sapiens) (UniProt Q06418); experiment: Inhibition of wild-type human partial length TYRO3 (S497 to T814 residues) expressed in bacterial expression system at 10 uM by Kinomescan method relative to control

Serine/threonine-protein kinase 38 (Homo sapiens), sequence (Q15208 2-465 limits assumed): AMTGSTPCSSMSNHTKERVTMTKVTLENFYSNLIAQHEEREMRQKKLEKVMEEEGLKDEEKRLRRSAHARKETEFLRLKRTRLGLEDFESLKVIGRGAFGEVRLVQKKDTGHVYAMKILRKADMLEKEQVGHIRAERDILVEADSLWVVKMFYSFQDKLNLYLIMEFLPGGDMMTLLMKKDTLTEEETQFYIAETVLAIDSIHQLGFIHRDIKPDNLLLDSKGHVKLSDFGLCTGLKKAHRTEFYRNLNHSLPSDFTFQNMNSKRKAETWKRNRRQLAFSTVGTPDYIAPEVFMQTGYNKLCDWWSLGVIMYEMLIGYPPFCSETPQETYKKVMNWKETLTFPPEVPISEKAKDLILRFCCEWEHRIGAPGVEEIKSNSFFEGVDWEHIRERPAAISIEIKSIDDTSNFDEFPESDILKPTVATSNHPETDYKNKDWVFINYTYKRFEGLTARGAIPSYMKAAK
Interleukin-1 receptor-associated kinase 3 (Homo sapiens), sequence (Q9Y616 whole entry, the tested form may be a part): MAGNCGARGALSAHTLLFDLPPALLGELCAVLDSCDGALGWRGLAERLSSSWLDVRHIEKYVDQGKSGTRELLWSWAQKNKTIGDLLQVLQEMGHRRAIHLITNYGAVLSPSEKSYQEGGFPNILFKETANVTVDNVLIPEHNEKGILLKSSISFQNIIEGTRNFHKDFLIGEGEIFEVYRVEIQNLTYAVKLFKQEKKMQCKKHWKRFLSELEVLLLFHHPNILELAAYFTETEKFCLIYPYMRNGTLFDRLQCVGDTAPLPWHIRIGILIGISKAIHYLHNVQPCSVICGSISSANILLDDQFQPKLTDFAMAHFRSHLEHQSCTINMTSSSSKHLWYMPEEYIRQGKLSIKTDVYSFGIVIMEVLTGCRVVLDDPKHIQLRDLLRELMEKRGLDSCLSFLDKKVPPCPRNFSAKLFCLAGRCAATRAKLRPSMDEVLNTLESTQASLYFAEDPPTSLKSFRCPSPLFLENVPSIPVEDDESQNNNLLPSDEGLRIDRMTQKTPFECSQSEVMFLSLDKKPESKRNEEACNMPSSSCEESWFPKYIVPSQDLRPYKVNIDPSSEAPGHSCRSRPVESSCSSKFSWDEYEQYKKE
ALK tyrosine kinase receptor (Homo sapiens), Q9UM73 [C1156Y], sequence (Q9UM73 whole entry C1156Y, looked up, the tested form may be a part): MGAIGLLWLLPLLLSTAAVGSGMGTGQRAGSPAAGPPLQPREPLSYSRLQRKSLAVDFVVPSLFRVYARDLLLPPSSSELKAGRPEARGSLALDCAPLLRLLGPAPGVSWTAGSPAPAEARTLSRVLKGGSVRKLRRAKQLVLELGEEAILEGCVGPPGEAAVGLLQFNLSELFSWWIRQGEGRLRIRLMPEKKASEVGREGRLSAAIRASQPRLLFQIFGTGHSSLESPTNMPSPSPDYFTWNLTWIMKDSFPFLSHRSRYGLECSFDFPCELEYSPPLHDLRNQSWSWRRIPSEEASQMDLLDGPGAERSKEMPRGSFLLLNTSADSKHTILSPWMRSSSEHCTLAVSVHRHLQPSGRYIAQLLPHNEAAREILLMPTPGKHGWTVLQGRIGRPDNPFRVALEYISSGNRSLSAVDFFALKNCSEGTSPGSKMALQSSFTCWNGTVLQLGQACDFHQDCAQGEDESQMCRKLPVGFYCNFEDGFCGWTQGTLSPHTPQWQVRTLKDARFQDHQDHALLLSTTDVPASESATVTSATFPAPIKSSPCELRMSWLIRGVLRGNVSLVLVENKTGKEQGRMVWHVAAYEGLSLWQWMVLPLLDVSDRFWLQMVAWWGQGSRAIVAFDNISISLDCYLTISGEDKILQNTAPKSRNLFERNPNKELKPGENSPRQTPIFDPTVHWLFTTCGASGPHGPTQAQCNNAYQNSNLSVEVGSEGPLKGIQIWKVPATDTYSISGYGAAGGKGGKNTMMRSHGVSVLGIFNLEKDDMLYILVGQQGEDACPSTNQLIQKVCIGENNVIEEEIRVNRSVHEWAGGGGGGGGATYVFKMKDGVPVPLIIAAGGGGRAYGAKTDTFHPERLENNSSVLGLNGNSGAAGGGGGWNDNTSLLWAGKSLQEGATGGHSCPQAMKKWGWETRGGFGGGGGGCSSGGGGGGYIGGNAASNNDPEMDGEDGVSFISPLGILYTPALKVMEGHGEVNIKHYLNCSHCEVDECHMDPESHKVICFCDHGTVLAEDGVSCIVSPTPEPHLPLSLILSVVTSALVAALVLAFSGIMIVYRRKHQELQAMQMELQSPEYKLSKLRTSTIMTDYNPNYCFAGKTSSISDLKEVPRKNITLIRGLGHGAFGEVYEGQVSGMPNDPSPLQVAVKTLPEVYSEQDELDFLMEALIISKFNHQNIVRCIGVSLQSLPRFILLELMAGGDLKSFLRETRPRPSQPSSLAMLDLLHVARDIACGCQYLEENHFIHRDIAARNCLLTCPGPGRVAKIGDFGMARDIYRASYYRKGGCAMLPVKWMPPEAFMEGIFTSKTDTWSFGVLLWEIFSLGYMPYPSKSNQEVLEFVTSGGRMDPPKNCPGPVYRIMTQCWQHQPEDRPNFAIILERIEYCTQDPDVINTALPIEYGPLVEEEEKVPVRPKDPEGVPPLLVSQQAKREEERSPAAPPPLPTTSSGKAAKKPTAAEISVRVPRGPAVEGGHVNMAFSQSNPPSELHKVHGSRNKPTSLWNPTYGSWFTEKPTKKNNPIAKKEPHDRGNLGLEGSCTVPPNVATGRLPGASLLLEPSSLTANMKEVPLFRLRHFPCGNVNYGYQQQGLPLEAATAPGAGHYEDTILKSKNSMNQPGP
Protein-tyrosine kinase 6 (Homo sapiens), sequence (Q13882 whole entry, looked up, the tested form may be a part): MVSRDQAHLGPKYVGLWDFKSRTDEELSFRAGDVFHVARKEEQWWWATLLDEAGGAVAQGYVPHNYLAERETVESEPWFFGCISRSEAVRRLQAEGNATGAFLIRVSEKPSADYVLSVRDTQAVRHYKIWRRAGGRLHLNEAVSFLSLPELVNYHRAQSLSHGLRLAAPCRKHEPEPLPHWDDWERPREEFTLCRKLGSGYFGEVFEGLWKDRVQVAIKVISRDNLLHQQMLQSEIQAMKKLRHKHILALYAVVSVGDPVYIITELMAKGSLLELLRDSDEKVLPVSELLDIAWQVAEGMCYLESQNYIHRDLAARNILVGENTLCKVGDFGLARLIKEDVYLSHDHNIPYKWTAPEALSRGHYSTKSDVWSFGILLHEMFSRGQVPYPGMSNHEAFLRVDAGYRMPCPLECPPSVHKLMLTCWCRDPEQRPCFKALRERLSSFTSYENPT
Phosphatidylinositol 4,5-bisphosphate 3-kinase catalytic subunit alpha isoform (Homo sapiens), P42336 [E542K], sequence (P42336 whole entry E542K, the tested form may be a part, canonical isoform): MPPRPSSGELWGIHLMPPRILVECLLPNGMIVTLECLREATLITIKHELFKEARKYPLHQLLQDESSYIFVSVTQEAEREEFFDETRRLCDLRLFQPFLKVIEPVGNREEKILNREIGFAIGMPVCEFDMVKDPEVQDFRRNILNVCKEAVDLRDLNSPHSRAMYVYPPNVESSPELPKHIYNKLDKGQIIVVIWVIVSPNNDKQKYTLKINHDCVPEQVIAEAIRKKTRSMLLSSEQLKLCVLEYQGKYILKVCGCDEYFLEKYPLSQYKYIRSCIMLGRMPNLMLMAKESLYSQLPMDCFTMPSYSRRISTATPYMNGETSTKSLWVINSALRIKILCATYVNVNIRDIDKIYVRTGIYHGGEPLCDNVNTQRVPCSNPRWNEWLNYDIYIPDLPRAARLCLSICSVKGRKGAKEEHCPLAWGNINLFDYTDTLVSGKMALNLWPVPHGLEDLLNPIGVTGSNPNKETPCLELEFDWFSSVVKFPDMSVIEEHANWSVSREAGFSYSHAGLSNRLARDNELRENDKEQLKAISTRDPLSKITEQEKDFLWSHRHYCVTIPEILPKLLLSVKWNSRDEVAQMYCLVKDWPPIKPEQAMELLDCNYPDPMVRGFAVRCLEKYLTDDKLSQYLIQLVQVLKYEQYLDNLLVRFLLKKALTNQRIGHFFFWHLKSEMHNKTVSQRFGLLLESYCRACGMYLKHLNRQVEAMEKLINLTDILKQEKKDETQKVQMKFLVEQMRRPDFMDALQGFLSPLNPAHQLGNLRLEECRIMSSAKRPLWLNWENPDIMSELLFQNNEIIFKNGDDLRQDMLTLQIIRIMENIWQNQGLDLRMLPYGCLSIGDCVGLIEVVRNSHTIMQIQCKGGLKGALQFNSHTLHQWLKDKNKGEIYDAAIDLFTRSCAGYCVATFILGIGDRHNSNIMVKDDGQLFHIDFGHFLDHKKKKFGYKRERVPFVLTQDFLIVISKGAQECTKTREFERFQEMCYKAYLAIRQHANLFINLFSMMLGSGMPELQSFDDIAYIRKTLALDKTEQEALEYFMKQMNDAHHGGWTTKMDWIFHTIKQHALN
LIM domain kinase 1 (Homo sapiens), sequence (P53667 whole entry, looked up, the tested form may be a part): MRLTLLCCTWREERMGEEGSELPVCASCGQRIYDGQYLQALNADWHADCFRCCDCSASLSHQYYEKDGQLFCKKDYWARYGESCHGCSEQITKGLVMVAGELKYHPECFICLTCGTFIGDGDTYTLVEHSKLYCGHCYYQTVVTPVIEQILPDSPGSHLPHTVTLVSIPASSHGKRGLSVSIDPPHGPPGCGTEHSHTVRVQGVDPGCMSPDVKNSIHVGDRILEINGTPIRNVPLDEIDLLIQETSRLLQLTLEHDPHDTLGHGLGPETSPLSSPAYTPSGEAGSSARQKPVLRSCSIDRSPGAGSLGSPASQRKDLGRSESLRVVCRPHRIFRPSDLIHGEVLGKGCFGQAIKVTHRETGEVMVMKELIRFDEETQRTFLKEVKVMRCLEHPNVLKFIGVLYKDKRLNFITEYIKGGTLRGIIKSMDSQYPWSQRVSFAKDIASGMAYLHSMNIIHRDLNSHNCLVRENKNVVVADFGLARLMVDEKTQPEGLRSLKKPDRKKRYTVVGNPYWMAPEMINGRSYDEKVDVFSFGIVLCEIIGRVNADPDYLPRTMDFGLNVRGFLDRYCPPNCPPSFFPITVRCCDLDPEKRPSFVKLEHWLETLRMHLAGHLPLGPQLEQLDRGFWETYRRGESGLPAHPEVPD

With `O=C(Nc1cccc([C@@H]2CN(c3ncnc4[nH]ccc34)CCN2CCO)c1)Nc1c(F)cccc1N1CCCC1` as the compound, how does the inhibition [1] read?
Its inhibition is 96%.

What about the inhibition [2] of the same compound?
The inhibition was 5.2%.

And the inhibition [3]?
Its inhibition is 98%.

And the inhibition [4]?
The inhibition was 90%.

And the inhibition [5]?
The inhibition was 16%.

And the inhibition [6]?
The inhibition was 100%.

What about the inhibition [7] of the same compound?
Its inhibition is 75%.

And the inhibition [8]?
Its inhibition is 85%.

What about the inhibition [9] of the same compound?
The inhibition was 72%.

What about the inhibition [10] of the same compound?
The inhibition was 95%.

And the inhibition [11]?
Its inhibition is 100%.

And the inhibition [12]?
Its inhibition is 79%.

And the inhibition [13]?
Its inhibition is 88%.

What about the inhibition [14] of the same compound?
Its inhibition is 100%.

What about the inhibition [15] of the same compound?
Its inhibition is 81%.

And the inhibition [16]?
Its inhibition is 80%.

What does the source list for `O=C(Nc1cccc([C@H]2CCCN(c3ncnc4[nH]ccc34)C2)c1)Nc1ccccc1N1CCCC1`?
inhibition [17]: 57%; inhibition [18]: 4.7%; inhibition [19]: 0.8%; inhibition [20]: 100%; inhibition [21]: 97%; inhibition [22]: 7.2%; inhibition [23]: 1.9%; inhibition [24]: 77%; inhibition [25]: 0.35%; inhibition [26]: 57%; inhibition [27]: 100%
